In general, IC50 refers to the concentration that inhibits the measured activity by half. Low values mean greater potency in that assay, high ones weaker potency in that assay.

Assay [1] has as its target Anti-cotinine antibody (SEQ ID NO: 11 / SEQ ID NO: 12, rabbit variable region with human IgG1 Fc domain). Nature of the assay: Binding of anti-cotinine antibody to ARM compounds by SPR, Biacore T200, 37° C. (Example 202). Particulars: pH 7.4, rabbit variable region/human IgG1 Fc antibody captured on protein A. In a few lines: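 Run at 37° C. in 10 mM HEPES pH 7.4, 150 mM NaCl, 0.005% P20, 1% DMSO. Compound titrated from 200 nM (five 3-fold steps) over protein A-captured antibody, with 200/2000 s association/dissociation. 1:1 kinetic fit gave kon, koff, Kd and residence time (1/koff); pKd averaged where runs repeated.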
In general terms: In SPR one partner is held on a chip, and binding of the other changes the refractive index at the surface.

For assay [2], the target named is T1, CHOK1 cells engineered to overexpress human CCR2 (Homo sapiens, UniProt P41597).
T1 construct: expressed in transfected cells; host or cells: CHOK1 cells
Nature of the assay: Antibody dependent cellular cytotoxicity (ADCC) reporter assay (Example 199). The assay is classed as cell-based. As to conditions: with anti-cotinine antibody SEQ ID NO: 11/12; CHOK1-human CCR2 target cells, Jurkat FcγRIIIa NFAT-luciferase reporter cells; 12-18 hours; read-out: ADCC Reporter Assay pEC50 (converted). In outline: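 Potency is reported as pEC50 from a nonlinear fit, averaged over runs, using luciferase signal divided by that of compound-free wells. The readout comes from NFAT-luciferase Jurkat cells expressing FcγRIIIa, mixed for 12–18 h with human CCR2-overexpressing CHOK1 cells, 1 pM–10 μM ARM compound and 0.01–200 μg/mL Fc-enhanced anti-cotinine IgG1.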
(In a reporter assay the amount or activity of a reporter protein is the signal.)

The target of assay [3] is human alpha1 nicotinic acetylcholine (nACh) receptor (Homo sapiens, UniProt P02708+Q07001). Kind of assay: Nicotinic acetylcholine receptor antagonism assay, IONFlux automated patch clamp (Example 203). In kind it is cell-based. As to conditions: for Emax at 100 µM: maximum percentage antagonism at maximum concentration tested 100 μM; for Emax at 100 µM / Emax at 10 µM: read-out: Maximum Response (%); for IC50: nAChR antagonism, ACh stimulated, patch clamp; for Emax at 10 µM: maximum percentage antagonism at maximum concentration tested 10 μM. In outline:
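Human α1 nAChR-expressing cells were preincubated with compound (top 10 μM or 100 μM), then stimulated with 10 mM ACh; peak currents were recorded by IONFlux automated patch clamp. Percent inhibition versus ACh-alone control was vehicle- and rundown-corrected, then fitted to give IC50, with maximal antagonism at the top concentration; recordings with control current <500 pA were excluded.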
For orientation: In patch-clamp work, channel activity is measured electrically.

“And” between values parts separate entries of the source, which are not always exact repeats. Equal values may be shown once. Some results are limits rather than exact numbers.

Chain of human alpha1 nicotinic acetylcholine (nACh) receptor (P02708 21-457): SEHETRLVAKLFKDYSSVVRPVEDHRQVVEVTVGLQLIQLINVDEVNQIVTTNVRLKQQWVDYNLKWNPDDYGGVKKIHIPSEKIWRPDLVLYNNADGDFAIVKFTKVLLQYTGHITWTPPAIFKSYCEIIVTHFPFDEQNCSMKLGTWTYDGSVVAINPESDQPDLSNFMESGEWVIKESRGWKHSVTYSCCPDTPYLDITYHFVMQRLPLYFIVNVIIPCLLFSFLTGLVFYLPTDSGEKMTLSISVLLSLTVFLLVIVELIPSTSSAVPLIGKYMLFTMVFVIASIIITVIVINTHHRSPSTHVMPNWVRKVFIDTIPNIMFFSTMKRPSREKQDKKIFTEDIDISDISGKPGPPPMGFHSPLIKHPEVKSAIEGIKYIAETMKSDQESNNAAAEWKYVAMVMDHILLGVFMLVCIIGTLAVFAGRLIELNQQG
Chain of human alpha1 nicotinic acetylcholine (nACh) receptor (P11230 24-501 partner): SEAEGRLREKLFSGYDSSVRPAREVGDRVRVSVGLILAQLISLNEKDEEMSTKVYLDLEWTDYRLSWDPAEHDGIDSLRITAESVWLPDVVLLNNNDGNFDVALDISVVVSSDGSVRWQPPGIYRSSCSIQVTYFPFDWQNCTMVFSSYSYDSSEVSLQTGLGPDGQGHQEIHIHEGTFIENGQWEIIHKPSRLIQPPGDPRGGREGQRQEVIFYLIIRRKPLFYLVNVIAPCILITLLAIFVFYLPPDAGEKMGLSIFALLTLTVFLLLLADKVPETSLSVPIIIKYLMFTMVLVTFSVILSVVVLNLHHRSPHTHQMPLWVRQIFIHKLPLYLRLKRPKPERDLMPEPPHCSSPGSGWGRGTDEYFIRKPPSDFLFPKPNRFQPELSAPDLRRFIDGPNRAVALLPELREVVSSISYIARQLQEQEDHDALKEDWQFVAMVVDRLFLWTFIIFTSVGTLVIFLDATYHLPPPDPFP
Chain of human alpha1 nicotinic acetylcholine (nACh) receptor (Q07001 22-517): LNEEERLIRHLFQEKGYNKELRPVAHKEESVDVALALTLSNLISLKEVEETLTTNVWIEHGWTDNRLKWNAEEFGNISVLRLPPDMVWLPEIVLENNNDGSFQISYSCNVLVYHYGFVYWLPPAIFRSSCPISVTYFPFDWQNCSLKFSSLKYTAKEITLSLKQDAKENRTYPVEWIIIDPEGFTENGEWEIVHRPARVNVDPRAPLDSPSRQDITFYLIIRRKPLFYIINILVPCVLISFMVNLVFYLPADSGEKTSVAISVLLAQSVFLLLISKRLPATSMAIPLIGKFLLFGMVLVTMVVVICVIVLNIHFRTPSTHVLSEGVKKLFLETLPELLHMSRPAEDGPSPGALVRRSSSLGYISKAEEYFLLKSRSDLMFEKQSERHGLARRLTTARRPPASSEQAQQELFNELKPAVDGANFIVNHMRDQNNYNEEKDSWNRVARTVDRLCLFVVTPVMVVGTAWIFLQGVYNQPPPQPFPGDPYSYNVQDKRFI

Take `CC(C)N(C)[C@@H]1CC[C@H](N2CC[C@H](Nc3ncnc4ccc(C(F)(F)F)cc34)C2=O)[C@H](NC(=O)[C@H]2CC[C@@H](NC(=O)CCOCCOCCNC(=O)CNC(=O)[C@H]3CC(=O)N(C)[C@@H]3c3cccnc3)CC2)C1` [Example 63, (2S,3S)-N-(2-((2-(2-(3-(((1 S,4s)-4-(((1R,2S,5R)-5-(Isopropyl(methyl)amino)-2-((S)-2-oxo-3-((6-(trifluoromethyl)quinazolin-4-yl)amino)pyrrolidin-1-yl)cyclohexyl)carbamoyl)cyclohexyl)amino)-3-oxopropoxy)ethoxy)ethyl)amino)-2-oxoethyl)-1-methyl-5-oxo-2-(pyridin-3-yl)pyrrolidine-3-carboxamide]: the “pKd of Antibody for ARM Compound of Formula (I)” value (“pKd of Antibody” for short) in assay [1] was 8.674. Besides, the EC50 in assay [2] was 0.67 nM and 0.31 nM. Further, in assay [3], the Emax at 100 µM came to 76.6% and the half-inhibitory concentration (IC50) amounted to 38.5 µM.
On to `CC(C)N(C)[C@@H]1CC[C@H](N2CC[C@H](Nc3ncnc4ccc(C(F)(F)F)cc34)C2=O)[C@H](NC(=O)[C@H]2CC[C@@H](C3CCN(C(=O)CCOCCOCCNC(=O)[C@H]4CC(=O)N(C)[C@@H]4c4cccnc4)CC3)CC2)C1` [Example 72, (2S,3S)-N-(2-(2-(3-(4-((1S,4s)-4-(((1R,2S,5R)-5-(isopropyl(methyl)amino)-2-((S)-2-oxo-3-((6-(trifluoromethyl)quinazolin-4-yl)amino)pyrrolidin-1-yl)cyclohexyl)carbamoyl)cyclohexyl)piperidin-1-yl)-3-oxopropoxy)ethoxy)ethyl)-1-methyl-5-oxo-2-(pyridin-3-yl)pyrrolidine-3-carboxamide], for which the “pKd of Antibody” value in assay [1] was found to be 9.8865. In addition, the EC50 in assay [2] was 7.94 nM. Also, in assay [3], the Emax at 10 µM was 32.7% and the IC50 is > 10 µM.
Regarding `CC(C)N(C)[C@@H]1CC[C@H](N2CC[C@H](Nc3ncnc4ccc(C(F)(F)F)cc34)C2=O)[C@H](NC(=O)CCOCCOCCNC(=O)CCOCCOCCNC(=O)[C@H]2CC(=O)N(C)[C@@H]2c2cccnc2)C1` [Example 76], the “pKd of Antibody” value in assay [1] came out at 9.1155. Further, the EC50 in assay [2] is 2.51 nM. In assay [3], the Emax at 100 µM stood at 67.7% and half-maximal inhibition (IC50) was put at 32.4 µM.
For the compound `CC(C)N(C)[C@@H]1CC[C@H](N2CC[C@H](Nc3ncnc4ccc(C(F)(F)F)cc34)C2=O)[C@H](NC(=O)COCCOCCNC(=O)CCOCCOCCNC(=O)[C@H]2CC(=O)N(C)[C@@H]2c2cccnc2)C1` [Example 77], in assay [1], the “pKd of Antibody” value was found to be 9.152. Besides, the EC50 in assay [2] is 5.52 nM. In assay [3], the Emax at 10 µM was 19.6% and the IC50 is > 10 µM.
Turning to `CC(C)N(C)[C@@H]1CC[C@H](N2CC[C@H](Nc3ncnc4ccc(C(F)(F)F)cc34)C2=O)[C@H](NC(=O)[C@H]2CC[C@@H](NC(=O)COCCNC(=O)COCCNC(=O)[C@H]3CC(=O)N(C)[C@@H]3c3cccnc3)CC2)C1` [Example 99], in assay [1], the “pKd of Antibody” value is reported as 9.062. Also, the EC50 in assay [2] was 1.99 nM. In assay [3], the Emax at 100 µM was 71.1% and 33.1 µM corresponded to half-maximal inhibition (IC50).
In the case of `CC(C)N(C)[C@@H]1CC[C@H](N2CC[C@H](Nc3ncnc4ccc(C(F)(F)F)cc34)C2=O)[C@H](NC(=O)CCOCCNC(=O)COCCNC(=O)COCCNC(=O)[C@H]2CC(=O)N(C)[C@@H]2c2cccnc2)C1` [Example 102, (2S,3S)-N-(18-(((1R,2S,5R)-5-(Isopropyl(methyl)amino)-2-((S)-2-oxo-3-((6-(trifluoromethyl)quinazolin-4-yl)amino)pyrrolidin-1-yl)cyclohexyl)amino)-5,11,18-trioxo-3,9,15-trioxa-6,12-diazaoctadecyl)-1-methyl-5-oxo-2-(pyridin-3-yl)pyrrolidine-3-carboxamide], in assay [1], the “pKd of Antibody” value came to 9.076. For the same compound, in assay [2], the EC50 is 1.26 nM. Further, in assay [3], the Emax at 100 µM amounted to 61.3% and the 50% inhibitory concentration (IC50) came out at 66.1 µM.
In the case of `CC(C)N(C)[C@@H]1CC[C@H](N2CC[C@H](Nc3ncnc4ccc(C(F)(F)F)cc34)C2=O)[C@H](NC(=O)CCOCCNC(=O)CCOCCNC(=O)COCCNC(=O)[C@H]2CC(=O)N(C)[C@@H]2c2cccnc2)C1` [Example 105], the “pKd of Antibody” value in assay [1] was determined as 9.0705. The EC50 in assay [2] is 0.794 nM. Besides, in assay [3], the Emax at 100 µM is 75.7% and the IC50 turned out to be 38.9 µM.
With `CC(C)N(C)[C@@H]1CC[C@H](N2CC[C@H](Nc3ncnc4ccc(C(F)(F)F)cc34)C2=O)[C@H](NC(=O)CCOCCNC(=O)[C@H]2CC[C@@H](NC(=O)COCCNC(=O)[C@H]3CC(=O)N(C)[C@@H]3c3cccnc3)CC2)C1` [Example 107, (2S,3S)-N-(2-(2-(((1S,4R)-4-((2-(3-(((1R,2S,5R)-5-(Isopropyl(methyl)amino)-2-((S)-2-oxo-3-((6-(trifluoromethyl)quinazolin-4-yl)amino)pyrrolidin-1-yl)cyclohexyl)amino)-3-oxopropoxy)ethyl)carbamoyl)cyclohexyl)amino)-2-oxoethoxy)ethyl)-1-methyl-5-oxo-2-(pyridin-3-yl)pyrrolidine-3-carboxamide], in assay [1], the “pKd of Antibody” value is given as 9.161. In assay [2], the EC50 was 0.158 nM. Besides, in assay [3], the Emax at 10 µM worked out at 12.2% and the IC50 is > 10 µM.
On to `CC(C)N(C)[C@@H]1CC[C@H](N2CC[C@H](Nc3ncnc4ccc(C(F)(F)F)cc34)C2=O)[C@H](NC(=O)COCCNC(=O)COCCNC(=O)COCCNC(=O)[C@H]2CC(=O)N(C)[C@@H]2c2cccnc2)C1` [Example 111, (2S,3S)-N-(17-(((1R,2S,5R)-5-(Isopropyl(methyl)amino)-2-((S)-2-oxo-3-((6-(trifluoromethyl)quinazolin-4-yl)amino)pyrrolidin-1-yl)cyclohexyl)amino)-5,11,17-trioxo-3,9,15-trioxa-6,12-diazaheptadecyl)-1-methyl-5-oxo-2-(pyridin-3-yl)pyrrolidine-3-carboxamide], for which the “pKd of Antibody” value in assay [1] is recorded as 9.0855. Moreover, the EC50 in assay [2] is 6.31 nM. In addition, in assay [3], the Emax at 100 µM stood at 67.6% and 52.9 µM corresponded to half-maximal inhibition (IC50).
For `CC(C)N(C)[C@@H]1CC[C@H](N2CC[C@H](Nc3ncnc4ccc(C(F)(F)F)cc34)C2=O)[C@H](NC(=O)CNC(=O)[C@H]2CC[C@@H](NC(=O)CCOCCOCCNC(=O)[C@H]3CC(=O)N(C)[C@@H]3c3cccnc3)CC2)C1` [Example 137, (2S,3S)-N-(2-(2-(3-(((1S,4s)-4-((2-(((1R,2S,5R)-5-(Isopropyl(methyl)amino)-2-((S)-2-oxo-3-((6-(trifluoromethyl)quinazolin-4-yl)amino)pyrrolidin-1-yl)cyclohexyl)amino)-2-oxoethyl)carbamoyl)cyclohexyl)amino)-3-oxopropoxy)ethoxy)ethyl)-1-methyl-5-oxo-2-(pyridin-3-yl)pyrrpolidine-3-carboxamide], in that order: 9.336, 1.67 nM, 62% and 70 µM.
Regarding `CC(C)N(C)[C@@H]1CC[C@H](N2CC[C@H](Nc3ncnc4ccc(C(F)(F)F)cc34)C2=O)[C@H](NC(=O)[C@H]2CC[C@@H](NC(=O)CCOCCNC(=O)CCNC(=O)CCNC(=O)[C@H]3CC(=O)N(C)[C@@H]3c3cccnc3)CC2)C1` [Example 182, (2S,3S)-N-(3-((3-((2-(3-(((1S,4s)-4-(((1R,2S,5R)-5-(Isopropyl(methyl)amino)-2-((S)-2-oxo-3-((6-(trifluoromethyl)quinazolin-4-yl)amino)pyrrolidin-1-yl)cyclohexyl)carbamoyl)cyclohexyl)amino)-3-oxopropoxy)ethyl)amino)-3-oxopropyl)amino)-3-oxopropyl)-1-methyl-5-oxo-2-(pyridin-3-yl)pyrrolidine-3-carboxamide], the “pKd of Antibody” value in assay [1] worked out at 9.117. Also, the EC50 in assay [2] is 0.514 nM and 0.191 nM. Also, in assay [3], the Emax at 100 µM was determined as 61.9% and the IC50 amounted to 76.4 µM.
As for `CC(C)N(C)[C@@H]1CC[C@H](N2CC[C@H](Nc3ncnc4ccc(C(F)(F)F)cc34)C2=O)[C@H](NC(=O)CCOCCC(=O)N[C@H]2C[C@@H](C(=O)NCCOCCNC(=O)[C@H]3CC(=O)N(C)[C@@H]3c3cccnc3)C2)C1` [Example 186, (2S,3S)-N-(2-(2-((1S,3R)-3-(3-(3-(((1R,2S,5R)-5-(Isopropyl(methyl)amino)-2-((S)-2-oxo-3-((6-(trifluoromethyl)quinazolin-4-yl)amino)pyrrolidin-1-yl)cyclohexyl)amino)-3-oxopropoxy)propanamido)cyclobutane-1-carboxamido)ethoxy)ethyl)-1-methyl-5-oxo-2-(pyridin-3-yl)pyrrolidine-3-carboxamide], the “pKd of Antibody” value in assay [1] is reported as 9.1435. The EC50 in assay [2] was 0.151 nM. In assay [3], the Emax at 100 µM was determined as 55.2% and 31.8 µM corresponded to half-maximal inhibition (IC50).
